How the values were obtained:
[1] = test system: Spodoptera littoralis (Egyptian Cotton Leaf Worm); assay: Spodoptera littoralis cotton leaf disc spray test; assay type: in vivo; settings: foliar, 72 h, application rate 200 ppm, L1 larvae, 3 days after infestation, read-out: control (at least one of mortality, anti-feedant effect, and growth inhibition)
Procedure: Spodoptera littoralis (Egyptian Cotton Leaf Worm)
Cotton leaf discs were placed on agar in 24-well microtiter plates and sprayed with aqueous test solutions prepared from 10,000 ppm DMSO stock solutions. After drying the leaf discs were infested with five L1 larvae. The samples were assessed for mortality, anti-feedant effect, and growth inhibition in comparison to untreated samples 3 days after infestation. Control of Spodoptera littoralis by a test sample is when at least one of mortality, anti-feedant effect, and growth inhibition is higher than the untreated sample.

[2] = test system: Plutella xylostella (Diamond Back Moth); assay: Plutella xylostella artificial diet test; assay type: in vivo; settings: 120 h, application rate 200 ppm, L2 larvae, 5 days after infestation, read-out: effect in at least one of the two categories (mortality or growth inhibition)
Procedure: Plutella xylostella (Diamond Back Moth):
24-well microtiter plates with artificial diet were treated with aqueous test solutions prepared from 10,000 ppm DMSO stock solutions by pipetting. After drying, the plates were infested with L2 larvae (10 to 15 per well). The samples were assessed for mortality and growth inhibition in comparison to untreated samples 5 days after infestation. The following compounds gave an effect of at least 80% in at least one of the two categories (mortality or growth inhibition) at an application rate of 200 ppm: 1, 2, 3, 4, 5, 6, 7, 8, 9, 11 and 12.

[3] = test system: Diabrotica Balteata, (Corn Root Worm); assay: Diabrotica balteata maize sprout spray test; assay type: in vivo; settings: 96 h, application rate 200 ppm, L2 larvae, 4 days after infestation, read-out: effect in at least one of the two categories (mortality or growth inhibition)
Procedure: Diabrotica Balteata, (Corn Root Worm) Maize sprouts, placed on an agar layer in 24-well microtiter plates were treated with aqueous test solutions prepared from 10,000 ppm DMSO stock solutions by spraying. After drying, the plates were infested with L2 larvae (6 to 10 per well). The samples were assessed for mortality and growth inhibition in comparison to untreated samples 4 days after infestation. The following compounds gave an effect of at least 80% in at least one of the two categories (mortality or growth inhibition) at an application rate of 200 ppm: 1, 2, 3, 5 and 6.

[4] = test system: Thrips tabaci (Onion Thrips); assay: Thrips tabaci sunflower leaf disc spray test; assay type: in vivo; settings: foliar, 144 h, application rate 200 ppm, population of mixed ages, 6 days after infestation
Procedure: Thrips tabaci (Onion Thrips):
(§1) Sunflower leaf discs were placed on agar in 24-well microtiter plates and sprayed with aqueous test solutions prepared from 10,000 ppm DMSO stock solutions. After drying the leaf discs were infested with a thrips population of mixed ages. The samples were assessed for mortality 6 days after infestation.

[5] = test system: Tetranychus urticae (Two-Spotted Spider Mite); assay: Tetranychus urticae bean leaf disc spray test; assay type: in vivo; settings: foliar, 192 h
Procedure: Tetranychus urticae (Two-Spotted Spider Mite):
as §1, with “Bean” for “Sunflower”, “discs” for “discs were placed”, “were” for “and”, “mite” for “thrips”, “on mixed population (mobile stages) 8” for “6”

[6] = test system: Euschistus heros (Neotropical Brown Stink Bug); assay: Euschistus heros soybean leaf spray test; assay type: in vivo; settings: 120 h, application rate 200 ppm, N2 nymphs, 5 days after infestation, read-out: effect in at least one of the two categories (mortality or growth inhibition)
Procedure: Euschistus heros (Neotropical Brown Stink Bug)
Soybean leaves on agar in 24-well microtiter plates were sprayed with aqueous test solutions prepared from 10,000 ppm DMSO stock solutions. After drying the leaves were infested with N2 nymphs. The samples were assessed for mortality and growth inhibition in comparison to untreated samples 5 days after infestation. The following compounds gave an effect of at least 80% in at least one of the two categories (mortality or growth inhibition) at an application rate of 200 ppm: 1

Row | melting point | Compound | mortality at 200 ppm [1] | percent effect (mortality or growth inhibition) at 200 ppm [2] | percent effect (mortality or growth inhibition) at 200 ppm [3] | mortality at 200 ppm [4] | mortality at 200 ppm [5] | percent effect (mortality or growth inhibition) at 200 ppm [6]
1 | – | CN(C(=O)c1cc(-c2cc(-c3c(C(F)(F)F)c(OC(F)(F)C(F)C(F)(F)F)nn3C)no2)sc1Cl)C1CC1 (stereo not shown) [Example 8, 2-chloro-N-cyclopropyl-5-[3-[5-(1,1,2,3,3,3-hexafluoropropoxy)-2-methyl-4-(trifluoromethyl)pyrazol-3-yl]isoxazol-5-yl]-N-methyl-thiophene-3-carboxamide] | ≥ 80% | ≥ 80% | – | – | – | –
2 | 218 to 219 °C | Cn1nc(OC(F)(F)C(F)C(F)(F)F)c(C(F)(F)F)c1-c1cc(-c2cc(C(=O)NC3(C#N)CC3)c(Cl)s2)on1 (stereo not shown) [Example 10, 2-chloro-N-(1-cyanocyclopropyl)-5-[3-[5-(1,1,2,3,3,3-hexafluoropropoxy)-2-methyl-4-(trifluoromethyl)pyrazol-3-yl]isoxazol-5-yl]thiophene-3-carboxamide] | – | – | – | – | – | –
3 | – | CCN(C(=O)c1cc(-c2cc(-c3c(C(F)(F)F)c(OC(F)(F)C(F)C(F)(F)F)nn3C)no2)sc1C#N)C1CC1 (stereo not shown) [Example 3, 2-cyano-N-cyclopropyl-N-ethyl-5-[3-[5-(1,1,2,3,3,3-hexafluoropropoxy)-2-methyl-4-(trifluoromethyl)pyrazol-3-yl]isoxazol-5-yl]thiophene-3-carboxamide] | – | ≥ 80% | ≥ 80% | ≥ 80% | – | –
4 | – | CN(C(=O)c1cc(-c2cc(-c3c(C(F)(F)F)c(OC(F)(F)C(F)C(F)(F)F)nn3C)no2)sc1C#N)C1(C#N)CC1 (stereo not shown) [Example 5, 2-cyano-N-(1-cyanocyclopropyl)-5-[3-[5-(1,1,2,3,3,3-hexafluoropropoxy)-2-methyl-4-(trifluoromethyl)pyrazol-3-yl]isoxazol-5-yl]-N-methyl-thiophene-3-carboxamide] | ≥ 80% | ≥ 80% | ≥ 80% | ≥ 80% | – | –
5 | – | CCN(C(=O)c1cc(-c2cc(-c3c(C(F)(F)F)c(OC(F)(F)C(F)C(F)(F)F)nn3C)no2)sc1Cl)C1(C#N)CC1 (stereo not shown) [Example 12, 2-chloro-N-(1-cyanocyclopropyl)-N-ethyl-5-[3-[5-(1,1,2,3,3,3-hexafluoropropoxy)-2-methyl-4-(trifluoromethyl)pyrazol-3-yl]isoxazol-5-yl]thiophene-3-carboxamide] | ≥ 80% | ≥ 80% | – | – | – | –
6 | – | CN(C(=O)c1cc(-c2cc(-c3c(C(F)(F)F)c(OC(F)(F)C(F)C(F)(F)F)nn3C)no2)sc1C#N)C1CC1 (stereo not shown) [Example 2, 2-cyano-N-cyclopropyl-5-[3-[5-(1,1,2,3,3,3-hexafluoropropoxy)-2-methyl-4-(trifluoromethyl)pyrazol-3-yl]isoxazol-5-yl]-N-methyl-thiophene-3-carboxamide] | – | ≥ 80% | ≥ 80% | ≥ 80% | ≥ 80% | –
7 | – | CCN(C(=O)c1cc(-c2cc(-c3c(C(F)(F)F)c(OC(F)(F)C(F)C(F)(F)F)nn3C)no2)sc1Cl)C1CC1 (stereo not shown) [Example 9, 2-chloro-N-cyclopropyl-N-ethyl-5-[3-[5-(1,1,2,3,3,3-hexafluoropropoxy)-2-methyl-4-(trifluoromethyl)pyrazol-3-yl]isoxazol-5-yl]thiophene-3-carboxamide] | ≥ 80% | ≥ 80% | – | – | – | –
8 | – | CN(C(=O)c1cc(-c2cc(-c3c(C(F)(F)F)c(OC(F)(F)C(F)C(F)(F)F)nn3C)no2)sc1Cl)C1(C#N)CC1 (stereo not shown) [Example 11, 2-chloro-N-(1-cyanocyclopropyl)-5-[3-[5-(1,1,2,3,3,3-hexafluoropropoxy)-2-methyl-4-(trifluoromethyl)pyrazol-3-yl]isoxazol-5-yl]-N-methyl-thiophene-3-carboxamide] | ≥ 80% | ≥ 80% | – | – | – | –
9 | – | Cn1nc(OC(F)(F)C(F)C(F)(F)F)c(C(F)(F)F)c1-c1cc(-c2cc(C(=O)NC3CC3)c(C#N)s2)on1 (stereo not shown) [Example 1, 2-cyano-N-cyclopropyl-5-[3-[5-(1,1,2,3,3,3-hexafluoropropoxy)-2-methyl-4-(trifluoromethyl)pyrazol-3-yl]isoxazol-5-yl]thiophene-3-carboxamide] | ≥ 80% | ≥ 80% | ≥ 80% | ≥ 80% | ≥ 80% | ≥ 80%
10 | – | CCN(C(=O)c1cc(-c2cc(-c3c(C(F)(F)F)c(OC(F)(F)C(F)C(F)(F)F)nn3C)no2)sc1C#N)C1(C#N)CC1 (stereo not shown) [Example 6, 2-cyano-N-(1-cyanocyclopropyl)-N-ethyl-5-[3-[5-(1,1,2,3,3,3-hexafluoropropoxy)-2-methyl-4-(trifluoromethyl)pyrazol-3-yl]isoxazol-5-yl]thiophene-3-carboxamide] | ≥ 80% | ≥ 80% | ≥ 80% | ≥ 80% | – | –
11 | – | Cn1nc(OC(F)(F)C(F)C(F)(F)F)c(C(F)(F)F)c1-c1cc(-c2cc(C(=O)NC3CC3)c(Cl)s2)on1 (stereo not shown) [Example 7, 2-chloro-N-cyclopropyl-5-[3-[5-(1,1,2,3,3,3-hexafluoropropoxy)-2-methyl-4-(trifluoromethyl)pyrazol-3-yl]isoxazol-5-yl]thiophene-3-carboxamide] | ≥ 80% | ≥ 80% | – | – | – | –
12 | – | Cn1nc(OC(F)(F)C(F)C(F)(F)F)c(C(F)(F)F)c1-c1cc(-c2cc(C(=O)NC3(C#N)CC3)c(C#N)s2)on1 (stereo not shown) [Example 4, 2-cyano-N-(1-cyanocyclopropyl)-5-[3-[5-(1,1,2,3,3,3-hexafluoropropoxy)-2-methyl-4-(trifluoromethyl)pyrazol-3-yl]isoxazol-5-yl]thiophene-3-carboxamide] | – | ≥ 80% | – | ≥ 80% | – | –

Source: patent publication US11472797B2, “Pesticidally active pyrazole derivatives” (SYNGENTA PARTICIPATIONS AG, priority 2017, dated 2022)
